Assay results: PubChem BioAssay (NCI)
Values joined by “and” are separate entries in the source; they are usually repeats but may differ in a detail not shown here. Equal values may be shown once.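 Dose response: 5 concentrations. Exposure: 48 h. Format: 96-well plates. Endpoint: linear interpolation; highest concentration if not reached. GI50 = concentration required for 50% inhibition of growth. TGI is the concentration that stops growth completely.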

How the values were obtained:
Assay in all cases: inhibition of tumour cell growth, NCI panel, 48 h
[1] = system: SK-MEL-28 melanoma
[2] = system: LXFL 529 NSCLC
[3] = system: HCC-2998 colon
[4] = system: M19-MEL melanoma
[5] = system: KM20L2 colon
[6] = system: SNB-75 CNS
[7] = system: HS 578T breast
[8] = system: T-47D breast
[9] = system: NCI/ADR-RES ovarian
[10] = system: DU-145 prostate

SMILES	TGI [1]	TGI [2] [µM]	TGI [3]	TGI [4] [µM]	TGI [5] [µM]	TGI [6]	GI50 [1]	GI50 [6]	GI50 [7]	TGI [7]	GI50 [3]	GI50 [8]	TGI [8]	GI50 [9]	TGI [9]	GI50 [10]	TGI [10]
CCOC(=O)NC(=O)c1cn(C2CCCCC2)c(=O)[nH]c1=O	> 100 µM	> 100	> 100 µM	> 100	> 100	–	–	–	–	–	–	–	–	–	–	–	–
O=C(N/C(=C\c1ccc([N+](=O)[O-])cc1)c1nc2ccccc2[nH]1)c1ccccc1	> 100 µM	> 100	> 100 µM	> 100	> 100	–	–	–	–	–	–	–	–	–	–	–	–
CC(C)(C)c1ccc2c(c1)S(=O)(=O)Nc1ccc(Cl)cc1NS(=O)(=O)c1cc(C(C)(C)C)ccc1OCCOCCOCCO2	> 100 µM	–	> 100 µM	> 100	–	59 µM	–	–	–	–	–	–	–	–	–	–	–
O=C(Nc1cc(Nc2ncccc2-c2ncnc3nc[nH]c23)ccc1F)c1cc(C(F)(F)F)cc(C(F)(F)F)c1	1.68 µM	–	2.74 µM	–	–	7.15 µM	0.34 µM	1.9 µM	1.8 µM	8.88 µM	1.24 µM	4.24 µM	> 10 µM	2.08 µM	7.32 µM	4.16 µM	> 10 µM
COc1cc2c(Nc3cc(Cl)c(OC)c(Cl)c3)c(C#N)cnc2cc1OCCCN1CCN(C)CC1	4.53 µM	–	4.1 µM	–	–	25.2 µM	1.97 µM	6.57 µM	2.82 µM	11.5 µM	1.56 µM	2.02 µM	9.65 µM	2.46 µM	9.55 µM	1.28 µM	13 µM
COc1ccc(-c2ccc3c(N4CCOC[C@@H]4C)nc(N4CCOC[C@@H]4C)nc3n2)cc1CO	0.181 µM	–	3.21 µM	–	–	0.0237 µM and 0.0359 µM	0.00476 µM and 0.0135 µM	0.0039 µM and < 0.01 µM	0.0018 µM and 0.0131 µM	0.0145 µM and 0.0679 µM	0.0094 µM and 0.0254 µM	0.00158 µM and < 0.01 µM	0.00844 µM and 0.0544 µM	0.013 µM and 0.0584 µM	–	0.00584 µM and 0.0416 µM	> 100 µM
COc1ccc(CC2c3c(cc(OC)c(OC)c3OC)CCN2C)cc1OC (stereo unspecified)	> 100 µM	> 100	> 100 µM	–	> 100	> 100 µM	–	–	–	–	–	–	–	–	–	–	–
O=C1c2ccccc2-c2c1c1ccccc1c(=O)n2CCN1CCNCC1	27.6 µM	–	5.01 µM	–	–	23.2 µM	5.82 µM	6.26 µM	3.74 µM	26.5 µM	0.785 µM	2.4 µM	16.2 µM	2.55 µM	11.4 µM	3.11 µM	8.79 µM
COc1ccc(/C(C)=C(\c2ccc(OCCN3CCCCCC3)cc2)c2ccc(OC(=O)C3CCCCC3)cc2)cc1	3.14 µM	–	3.36 µM	–	–	3.88 µM	1.25 µM	1.6 µM	0.959 µM	3.74 µM	1.24 µM	0.405 µM	3.33 µM	1.61 µM	4.78 µM	1.91 µM	4.54 µM
CC1(C)CN=C(NN=C(/C=C/c2ccc(C(F)(F)F)cc2)/C=C/c2ccc(C(F)(F)F)cc2)NC1	3.25 µM	–	2.92 µM	–	–	2.95 µM	1.64 µM	1.56 µM	1.56 µM	3.64 µM	1.41 µM	1.49 µM	3.03 µM	1.4 µM	3.03 µM	1.04 µM	2.22 µM
OC(c1cc(-c2ccc(C(F)(F)F)cc2)nc(C(F)(F)F)c1)C1CCCCN1 (stereo unspecified)	3.27 µM and 5.97 µM	–	1.76 µM and 3.07 µM	–	–	2.69 µM and 10.6 µM	1.83 µM and 2.55 µM	1.37 µM and 3.96 µM	1.96 µM and 3.92 µM	4.05 µM and 12.2 µM	0.53 µM	1.66 µM and 2.33 µM	3.31 µM and 6.2 µM	1.65 µM	3.1 µM and 5.99 µM	1.76 µM and 2.66 µM	3.14 µM and 7.06 µM
CO[C@H]1Nc2c(ccc(C)c2O)C(=O)N2C=C(/C=C/C(N)=O)C[C@@H]12	0.0829 µM	–	0.132 µM	0.0939	0.891	0.0576 µM	–	–	–	0.0407 µM	–	–	> 7.99 µM	–	0.085 µM	–	> 62 µM
O=C(Cc1nc2c3c(ccc2[nH]c1=O)C(=O)c1ccccc1C3=O)C(=O)Nc1ccccc1[N+](=O)[O-]	30.3 µM	18	36.8 µM	79.5	39.6	–	–	–	–	–	–	–	–	–	–	–	–
O=C1CCCN1c1ccccc1I(=O)=O	> 100 µM	–	> 100 µM	–	–	> 100 µM	> 100 µM	> 100 µM	> 100 µM	> 100 µM	> 100 µM	91.4 µM	> 100 µM	> 100 µM	> 100 µM	> 100 µM	> 100 µM
COc1ccc(-c2nc(-c3cc(OC)cc(OC)c3)[nH]c2-c2ccc(OC)cc2)cc1	> 100 µM	–	> 100 µM	–	–	> 100 µM	> 100 µM	> 100 µM	8.33 µM	> 100 µM	5.96 µM	2.36 µM	9.25 µM	9.76 µM	> 100 µM	65.5 µM	> 100 µM
CC(C)c1[nH]nc2c1N=C(c1ccccc1Cl)c1cc([N+](=O)[O-])ccc1N2	> 25 µM	–	> 19.1 µM	–	–	> 17.6 µM	6.26 µM	1.31 µM	3.16 µM	> 20.7 µM	6.91 µM	8.75 µM	> 23 µM	6.37 µM	> 25 µM	7.87 µM	> 23.6 µM
CC(C)(C)[Si](C)(C)OC1[C@@H](CNC(=O)NC(=O)CCl)O[C@@H](n2cnc3c(N)ncnc32)[C@H]1O[Si](C)(C)C(C)(C)C (stereo partly specified)	4.12 µM	–	3.95 µM	–	–	2.47 µM	1.4 µM	0.867 µM	1.14 µM	3.17 µM	1.61 µM	1.03 µM	2.13 µM	1.18 µM	3.11 µM	2.05 µM	5.26 µM
COC(=O)/C(=N/O)C(C(=O)C=C(C)C)C(=O)C(=O)Nc1nc2ccc([N+](=O)[O-])cc2s1 (stereo unspecified)	> 100 µM	> 100	> 100 µM	> 100	> 100	–	–	–	–	–	–	–	–	–	–	–	–
NNCCc1ccc(NC(=O)CCCc2ccc(C(=O)Nc3ccccc3N)cc2)cc1	> 100 µM	–	> 100 µM	–	–	> 100 µM	12.1 µM	32.8 µM	37.8 µM	> 100 µM	18 µM	4.34 µM	> 100 µM	21.6 µM	> 100 µM	14.5 µM	> 100 µM

SMILES	TGI [1]	TGI [2] [µM]	TGI [3]	TGI [4] [µM]	TGI [5] [µM]	TGI [6]	GI50 [1]	GI50 [6]	GI50 [7]	TGI [7]	GI50 [3]	GI50 [8]	TGI [8]	GI50 [9]	TGI [9]	GI50 [10]	TGI [10]
Cc1cc(Nc2nc(-c3cn(-c4ccc(Cl)cc4)nn3)nc3ccccc23)n[nH]1	> 50 µM	–	> 50 µM	–	–	> 50 µM	21.9 µM	23 µM	> 50 µM	> 50 µM	36.4 µM	13.1 µM	42.3 µM	1.58 µM	> 50 µM	10.7 µM	> 50 µM
O=[N+]([O-])c1cccc(C2=NOC(C3CCCCC3)C2)c1 (stereo unspecified)	> 100 µM	> 100	> 100 µM	> 100	–	> 100 µM	–	–	–	–	–	–	–	–	–	–	–
CC(C)CC(C/C=C1/CC(CO)(COC(=O)C(C)(C)C)OC1=O)CC(C)C (stereo unspecified)	44.7 µM and 20.8 µM	–	5.37 µM and 6.13 µM	–	–	23.6 µM and 26.6 µM	28.7 µM	–	–	24.2 µM and 14.7 µM	–	–	40.5 µM and 23.9 µM	–	35.3 µM and 29.7 µM	20.2 µM	49.2 µM and 11.5 µM
COc1ccc(-c2nccn2-c2ccc(OC)cc2)cc1	60.6 µM	–	33.7 µM	–	–	30.3 µM	19.1 µM	5.06 µM	20.9 µM	74.7 µM	16.4 µM	65.4 µM	> 100 µM	20.5 µM	49.4 µM	33.3 µM	> 93.8 µM
CC1CC(O)C(=O)C(O[C@@H]2C[C@@H]3CC[C@@H]4[C@H](CC[C@]5(C)C(C6=CC(=O)OC6)CC[C@]45O)[C@@]3(C=O)C[C@H]2O)O1 (stereo partly specified)	0.329 µM	–	0.243 µM	–	–	0.18 µM	–	–	–	0.214 µM	–	–	0.205 µM	–	0.0678 µM	–	0.0237 µM
CCCC/C(=C\C1=C(C)C(=O)C(OC)=C(OC)C1=O)C(=O)O	> 100 µM	–	> 100 µM	–	–	> 100 µM	> 100 µM	25.2 µM	> 100 µM	> 100 µM	> 100 µM	33.2 µM	94.3 µM	> 100 µM	> 100 µM	> 100 µM	> 100 µM
C#CCOc1cccc(Nc2ncnc3c(NC(=O)C=C)cccc23)c1	88.6 µM	–	33.9 µM	–	–	> 100 µM	20.6 µM	17.6 µM	30.3 µM	> 100 µM	17.7 µM	18.2 µM	78.4 µM	19.8 µM	98.1 µM	18.1 µM	> 100 µM
CCc1ccc2c(c1)C(=O)c1c-2n(CCCN=[N+]=[N-])c(=O)c2cc([N+](=O)[O-])ccc12	> 50 µM	–	> 50 µM	–	–	> 50 µM	> 50 µM	25.5 µM	> 50 µM	> 50 µM	> 50 µM	> 50 µM	> 50 µM	> 50 µM	> 50 µM	> 50 µM	> 50 µM
CCN(CC)CCCCCCNc1cccc2cc(Br)cnc12	6.76 µM	–	15.4 µM	–	–	9.17 µM	2.82 µM	2.82 µM	6.03 µM	28.5 µM	3.84 µM	5.31 µM	20 µM	4.88 µM	20.3 µM	12.7 µM	26.4 µM
COC(c1ccc(C(C)(C)C)cc1)(c1ccc(C(C)(C)C)cc1)c1ccc(C(C)(C)C)cc1	> 100 µM	–	> 100 µM	–	–	> 100 µM	–	–	–	> 100 µM	–	–	> 100 µM	–	> 100 µM	–	> 100 µM
Cn1c(=O)nc2n(-c3cc(C(F)(F)F)cc(C(F)(F)F)c3)c3ccccc3nc-2c1=O	> 100 µM	–	> 100 µM	29.5	> 100	47.1 µM	–	–	–	–	–	–	–	–	–	–	–
CC1=C(C#N)C(=O)CC(c2ccc(Cl)cc2)N(C)N1 (stereo unspecified)	> 100 µM	> 100	> 100 µM	–	–	> 100 µM	–	–	–	–	–	–	–	–	–	–	–
O=C(c1ccco1)c1c(C(F)(F)F)n([O-])c2ccc(C(F)(F)F)cc2[n+]1=O	1.91 µM	–	2.5 µM	–	–	1.55 µM	0.717 µM	0.576 µM	0.654 µM	2.74 µM	1.04 µM	0.344 µM	1.75 µM	0.257 µM	0.939 µM	0.5 µM	0.925 µM
CCCc1cc(=O)n2c(C(=O)Nc3ccc(Cl)cc3C)c(C(=O)Nc3ccc(F)cc3)sc2n1	46 µM	–	> 150 µM	–	–	11.5 µM	8.07 µM	3.71 µM	2.27 µM	8.55 µM	96.6 µM	20 µM	132 µM	10.6 µM	59.7 µM	9.37 µM	33.3 µM
CCCCCCCCCCNC(=O)CI	3.91 µM	–	11.5 µM	–	–	3.09 µM	1.95 µM	1.64 µM	2.53 µM	6.79 µM	3.53 µM	0.829 µM	2.41 µM	2.32 µM	5.56 µM	1.95 µM	3.72 µM
CCN1c2ccccc2-c2c3c1cc(C)cc3c1ccccc1[n+]2CC	2.46 µM	1.86	2.11 µM	1.27	–	2.2 µM	–	–	–	–	–	–	–	–	–	–	–
Cc1cccc(C2=C/C(=C(\SS/C(C(=O)c3ccc(OCC(=O)O)c(Cl)c3Cl)=C3\C=C(c4cccc(C)c4)SS3)C(=O)c3ccc(OCC(=O)O)c(Cl)c3Cl)SS2)c1	87.4 µM	–	> 100 µM	> 60.1	> 100	> 83.5 µM	–	–	–	–	–	–	–	–	–	–	–
Nc1cc(Br)c(-c2nnc(CCC(=O)c3nc4ccccc4[nH]3)o2)c(Br)c1	79 µM	–	42.5 µM	–	–	20.5 µM	6.31 µM	2.96 µM	3.75 µM	31.7 µM	11 µM	23.4 µM	> 100 µM	22.6 µM	> 100 µM	5.4 µM	53.5 µM
O=C1Nc2ccccc2/C1=C1\CCc2cc(O)ccc21	> 25 µM	–	> 25 µM	–	–	> 25 µM	15.3 µM	8.06 µM	7.12 µM	> 25 µM	9.41 µM	6.35 µM	> 25 µM	7.65 µM	> 25 µM	11.4 µM	> 25 µM
